The results in this text go back to patent US20200038392A1, “TOPICAL COMPOSITIONS AND METHODS OF PREPARATION AND USE” (Aldeyra Therapeutics, Inc., priority 2018, published 2020).

Converted amounts (≈) assume the structure as drawn. Read-outs that look alike come from different tables or passages of the source.

A short description of data set [1]: ADX-102 oxidation investigation: peroxide spiking (H2O2, NMP) and high temperature stress in PEG 400. The format is physicochemical. The note with it: both peroxide spiking experiments (H2O2 and NMP); t=48 h at 70° C. How it is done: A preliminary study was performed in an attempt to degrade ADX-102 to a suitable level such that oxidation products observed during long-term stability could be detected. To this end, an ADX-102 in PEG 400 stock solution (0.1% w/w) was prepared and degraded with hydrogen peroxide (H2O2) and N-methylpyrrolidone (NMP) at 0.1 and 1.0% w/w concentrations, respectively. Additionally, the stocks were stressed at 40 and 70° C. to increase degradation. […] Sufficient degradation of ADX-102 was observed following spiking with […] H2O2 and storage at 70° C. for 48 h condition and was therefore considered suitable for use in antioxidant/stabilizer selection experiments described below.

Data set [2] in a line: Super-refined PEG 400 versus non-refined PEG 400: saturated solubility and chemical stability of ADX-102. The note with it: in PEG 400 (non-super refined). Format: physicochemical. How it is done: The use and requirement of non-super refined PEG 400 as an excipient was investigated in view of to the higher cost of SR PEG 400. Saturated solubility and chemical stability of ADX-102 in PEG 400 (non-super refined) was performed as described above.

Data set [3] in a line: Saturated solubility of ADX-102 in DoE solvent systems. Format: physicochemical. The note with it: solvent system SS26; range in brackets. The method, then: Following the visual assessment of placebo formulations, a DoE mixture design for ADX-102 aqueous phase solvent systems was prepared, as shown in Table 22. This was performed in order to assess the solubility of ADX-102 in solvent systems and to confirm that at least a 1.0% w/w and a 5% w/w concentration of ADX-102 in the aqueous phase of the formulation was obtainable. The following excipient levels were assessed during the solvent system DoE experiments: • Water: 0-50% • Transcutol® HP: 0-20% • SR PEG 400: 0-60% • Ethanol: 0-20% • Propylene glycol: 0-15%
SS19, along with SS20 (SS21 was not used due to the high levels of Transcutol® HP), were used as a base for further solvent system development. SS23-SS26 were prepared, broadly based on these systems, with varying levels of excipient and added antioxidant/stabilizer, and preservative. The compositions of these solvent systems are detailed in Table 25. Additionally, penetration enhancers were varied in the developed solvent system, with SS23 (based on SS19) including no Transcutol® and SS25 including diisopropyl adipate, and in the case of SS24, a humectant (glycerol). It should be noted that SS25 became turbid following the addition of diisopropyl adipate.
The solvent system SS26 was developed in order to manufacture a 5% w/w formulation. […]

Data set [4] is classed as physicochemical. From the text:
It is important to note that the comparison formulation has a nominal ADX-102 concentration of 1.0% w/w, which was higher than that observed in the aqueous phase of the comparison formulation (0.31% w/w). […] However, it is possible that oil phase excipients may assist in solubilizing ADX-102, allowing it to partition between phases.

Data set [5] is described as follows: Solubility of ADX-102 in potential receiver fluid systems. Format: physicochemical. The note with it: aqueous with cosolvent or surfactant or cyclodextrin. How it is done:
The solubility of the drug in a range of receiver fluid systems was determined to ensure that drug release was not limited by the solubility of ADX-102 in the receptor compartment of Franz cells. The receiver fluids selected for investigation were: ethanol and water (50:50 v/v), 2% Brij 98 in ethanol and water (50:50 v/v), 20% PEG in water, 20% PEG 400 in ethanol and water (50:50 v/v) and 2% Tween 80 in water. The findings are summarized below.

Regarding `CC(C)(O)c1nc2ccc(Cl)cc2cc1N` [ADX-102, 2-[3-amino-6-chloro-quinolin-2-yl]-propan-2-ol], in data set [1], the “ADX-102 remaining after degradation” value is under 70%. Also, the Saturated solubility in data set [2] is over 20.00 % w/w; in data set [4] it was 0.31 % w/w. Besides, the “ADX-102 saturated solubility (% w/w)” value in data set [3] was 6.85 (6.84-6.86) % w/w. In addition, the solubility in data set [4] came to 0.31%; in data set [5] (receiver fluid 1: Ethanol and water (50:50 v/v)), 23.5 mg/mL (≈ 99.5 mM); in data set [5] (receiver fluid 1: ethanol and water (50:50 v/v)), 23.6 mg/mL (≈ 99.5 mM); in data set [5] (receiver fluid 2: 2% Brij 98 in ethanol and water (50:50 v/v)), 28.3 mg/mL (≈ 120 mM); in data set [5] (receiver fluid 3: 20% PEG 400 in water) it was 1.31 mg/mL (≈ 5.53 mM); in data set [5] (receiver fluid 4: 20% PEG 400 in ethanol and water (50:50 v/v)), 20.5 mg/mL (≈ 86.4 mM). Besides, the solubility was 26.3 mg/mL (≈ 111 mM) in data set [5] (receiver fluid 5: 2% Tween 80 in water) and 1.31 to 28.4 mg/mL (≈ 5.53 to 120 mM) in data set [5] (receiver fluid systems for Franz cells, range over the investigated receiver fluid systems).
